Source: ChEMBL document CHEMBL1201862, “PubChem BioAssay data set” (2004)
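Values below derive from 48-hour exposures of cells grown in 96-well plates, with endpoints linearly interpolated between the two concentrations bracketing the appropriate inhibition level. GI50: concentration for 50% inhibition of growth.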 The source made the active and inactive calls. No stated cut-off is given here; in the data, active = GI50 up to about 1.1 µM and inactive = higher.

Key:
Experiment in all cases: DTP human tumour cell line panel, 48 h
[1] = tested on: 786-0
[2] = tested on: A549
[3] = tested on: ACHN
[4] = tested on: CCRF-CEM
[5] = tested on: COLO 205
[6] = tested on: DLD-1
[7] = tested on: DMS-114
[8] = tested on: DMS-273
[9] = tested on: EKVX
[10] = tested on: HCC 2998
[11] = tested on: HCT-116
[12] = tested on: HCT-15
[13] = tested on: HL-60
[14] = tested on: HOP-18
[15] = tested on: IGROV-1
[16] = tested on: K562
[17] = tested on: KM-20L2
[18] = tested on: KM12
[19] = tested on: LOX IMVI
[20] = tested on: LXFL 529
[21] = tested on: M19-MEL
[22] = tested on: MOLT-4
[23] = tested on: Malme-3M
[24] = tested on: NCI-H23
[25] = tested on: NCI-H460
[26] = tested on: NCI-H522
[27] = tested on: OVCAR-5
[28] = tested on: OVCAR-8
[29] = tested on: RPMI-8226
[30] = tested on: RXF 393
[31] = tested on: SF-268
[32] = tested on: SF-295
[33] = tested on: SF-539
[34] = tested on: SK-MEL-28
[35] = tested on: SK-MEL-2
[36] = tested on: SK-MEL-5
[37] = tested on: SK-OV-3
[38] = tested on: SN12C
[39] = tested on: SNB-19
[40] = tested on: SNB-78
[41] = tested on: SR
[42] = tested on: SW-620
[43] = tested on: TK-10
[44] = tested on: U-251
[45] = tested on: UACC-257
[46] = tested on: UACC-62
[47] = tested on: UO-31
[48] = tested on: A498
[49] = tested on: CAKI-1
[50] = tested on: HOP-62
[51] = tested on: HOP-92
[52] = tested on: HT-29
[53] = tested on: M14
[54] = tested on: NCI-H226
[55] = tested on: OVCAR-3
[56] = tested on: OVCAR-4
[57] = tested on: SNB-75
[58] = tested on: XF498
[59] = tested on: MCF7
[60] = tested on: NCI/ADR-RES

`O=C1Nc2cccc3ncn(c23)C2=C1CCCC2` was tested, and the GI50 [1] was > 100 µM (inactive), the GI50 [2] was > 100 µM (inactive) and the GI50 [3] was > 100 µM (inactive). For the same molecule, the GI50 [4] was > 100 µM (inactive), the GI50 [5] was > 100 µM (inactive) and the GI50 [6] was > 100 µM (inactive). For the same molecule, the GI50 [7] was > 100 µM (inactive), the GI50 [8] was > 100 µM (inactive) and the GI50 [9] was > 100 µM (inactive). For the same molecule, the GI50 [10] was > 100 µM (inactive), the GI50 [11] was > 100 µM (inactive) and the GI50 [12] was over 100 µM. The GI50 [13] was > 100 µM (inactive), the GI50 [14] was 4.98 µM (inactive) and the GI50 [15] was > 100 µM (inactive). For the same molecule, the GI50 [16] was > 100 µM (inactive), the GI50 [17] was > 100 µM (inactive) and the GI50 [18] was > 100 µM (inactive). The GI50 [19] was > 100 µM (inactive), the GI50 [20] was > 100 µM (inactive) and the GI50 [21] was > 100 µM (inactive). For the same molecule, the GI50 [22] was > 100 µM (inactive), the GI50 [23] was > 100 µM (inactive) and the GI50 [24] was > 100 µM (inactive). For the same molecule, the GI50 [25] was > 100 µM (inactive), the GI50 [26] was > 100 µM (inactive) and the GI50 [27] was > 100 µM (inactive). For the same molecule, the GI50 [28] was > 100 µM (inactive), the GI50 [29] was > 100 µM (inactive) and the GI50 [30] was > 100 µM (inactive). For the same molecule, the GI50 [31] was > 100 µM (inactive), the GI50 [32] was > 100 µM (inactive) and the GI50 [33] was > 100 µM (inactive). The GI50 [34] was > 100 µM (inactive), the GI50 [35] was > 100 µM (inactive) and the GI50 [36] was > 100 µM (inactive). The GI50 [37] was 96.2 µM (inactive), the GI50 [38] was > 100 µM (inactive) and the GI50 [39] was > 100 µM (inactive). For the same molecule, the GI50 [40] was > 100 µM (inactive), the GI50 [41] was > 100 µM (inactive) and the GI50 [42] was > 100 µM (inactive). For the same molecule, the GI50 [43] was > 100 µM (inactive), the GI50 [44] was > 100 µM (inactive) and the GI50 [45] was > 100 µM (inactive). The GI50 [46] was > 100 µM (inactive) and the GI50 [47] was > 100 µM (inactive).
With `Nc1ccc(/N=N/c2ccc(-c3ccc(/N=N/c4c(S(=O)(=O)O)cc5cc(S(=O)(=O)O)c(/N=N/c6ccc([N+](=O)[O-])cc6)c(N)c5c4O)cc3)cc2)c2cc(S(=O)(=O)O)ccc12` the GI50 [1] was > 100 µM (inactive), the GI50 [48] was > 100 µM (inactive) and the GI50 [2] was > 100 µM (inactive). For the same molecule, the GI50 [3] was > 100 µM (inactive), the GI50 [49] was > 100 µM (inactive) and the GI50 [4] was > 100 µM (inactive). The GI50 [5] was > 100 µM (inactive), the GI50 [6] was > 100 µM (inactive) and the GI50 [8] was > 100 µM (inactive). The GI50 [9] was > 100 µM (inactive), the GI50 [10] was > 100 µM (inactive) and the GI50 [11] was > 100 µM (inactive). The GI50 [12] was over 100 µM, the GI50 [13] was > 100 µM (inactive) and the GI50 [50] was > 100 µM (inactive). The GI50 [51] was 97.7 µM (inactive), the GI50 [52] was > 100 µM (inactive) and the GI50 [15] was > 100 µM (inactive). For the same molecule, the GI50 [16] was > 100 µM (inactive), the GI50 [17] was > 100 µM (inactive) and the GI50 [18] was > 100 µM (inactive). For the same molecule, the GI50 [19] was > 100 µM (inactive), the GI50 [20] was > 100 µM (inactive) and the GI50 [53] was > 100 µM (inactive). For the same molecule, the GI50 [21] was > 100 µM (inactive), the GI50 [22] was > 100 µM (inactive) and the GI50 [23] was > 100 µM (inactive). The GI50 [54] was > 100 µM (inactive), the GI50 [24] was > 100 µM (inactive) and the GI50 [25] was > 100 µM (inactive). The GI50 [26] was > 100 µM (inactive), the GI50 [55] was > 100 µM (inactive) and the GI50 [56] was > 100 µM (inactive). The GI50 [27] was > 100 µM (inactive), the GI50 [28] was > 100 µM (inactive) and the GI50 [29] was > 100 µM (inactive). For the same molecule, the GI50 [30] was > 100 µM (inactive), the GI50 [31] was > 100 µM (inactive) and the GI50 [32] was 84.5 µM (inactive). The GI50 [33] was > 100 µM (inactive), the GI50 [34] was > 100 µM (inactive) and the GI50 [35] was > 100 µM (inactive). The GI50 [36] was > 100 µM (inactive), the GI50 [37] was > 100 µM (inactive) and the GI50 [38] was > 100 µM (inactive). For the same molecule, the GI50 [39] was > 100 µM (inactive), the GI50 [57] was 78.9 µM (inactive) and the GI50 [40] was > 100 µM (inactive). For the same molecule, the GI50 [41] was > 100 µM (inactive), the GI50 [42] was > 100 µM (inactive) and the GI50 [43] was > 100 µM (inactive). For the same molecule, the GI50 [44] was > 100 µM (inactive), the GI50 [45] was > 100 µM (inactive) and the GI50 [46] was > 100 µM (inactive). For the same molecule, the GI50 [47] was > 100 µM (inactive) and the GI50 [58] was > 100 µM (inactive).
For `COc1cc([C@@H]2c3cc4c(c(O)c3C[C@H]3COC(=O)[C@@H]32)OCO4)cc(OC)c1O`, the GI50 [1] was 0.00596 µM (active), the GI50 [48] was < 0.02 µM (active) and the GI50 [2] was < 0.02 µM (active). The GI50 [3] was 0.00631 µM (active), the GI50 [49] was < 0.02 µM (active) and the GI50 [5] was 0.0281 µM (active). The GI50 [7] was < 0.02 µM (active), the GI50 [8] was < 0.02 µM (active) and the GI50 [9] was 0.0351 µM (active). For the same molecule, the GI50 [10] was 0.0237 µM (active), the GI50 [11] was 0.0205 µM (active) and the GI50 [14] was < 0.02 µM (active). The GI50 [50] was < 0.02 µM (active), the GI50 [51] was < 0.02 µM (active) and the GI50 [52] was 0.577 µM (active). For the same molecule, the GI50 [15] was 0.0277 µM (active), the GI50 [16] was 0.0243 µM (active) and the GI50 [20] was 0.00257 µM (active). For the same molecule, the GI50 [53] was 0.00278 µM (active), the GI50 [21] was 0.237 µM (active) and the GI50 [59] was 0.0377 µM (active). The GI50 [23] was 0.0266 µM (active), the GI50 [54] was < 0.02 µM (active) and the GI50 [24] was 0.0853 µM (active). The GI50 [60] was 0.0231 µM (active), the GI50 [27] was 29.2 µM (inactive) and the GI50 [28] was 0.0249 µM (active). For the same molecule, the GI50 [29] was 0.026 µM (active), the GI50 [30] was 0.233 µM (active) and the GI50 [31] was < 0.02 µM (active). For the same molecule, the GI50 [32] was < 0.02 µM (active), the GI50 [35] was 0.027 µM (active) and the GI50 [36] was < 0.02 µM (active). For the same molecule, the GI50 [38] was 0.033 µM (active), the GI50 [39] was 0.796 µM (active) and the GI50 [57] was 25.4 µM (inactive). The GI50 [40] was < 0.02 µM (active), the GI50 [41] was 0.00307 µM (active) and the GI50 [42] was < 0.02 µM (active). For the same molecule, the GI50 [43] was 0.00762 µM (active), the GI50 [45] was < 0.02 µM (active) and the GI50 [46] was < 0.02 µM (active). The GI50 [47] was < 0.02 µM (active).
